Read-outs that look alike come from different tables or passages of the source.
Assays:
Cx43 HCs = molecular target: T1, Cx43 HCs (Homo sapiens, UniProt P17302); assay: Cx43-dependent growth complementation assay in E. coli LB2003; format: cell-based; details: for Cx43/Cx26 Selectivity: IC50 Cx26/IC50 Cx43
T1 construct: expressed in transfected cells

human Cx26 HCs = molecular target: T2, human Cx26 HCs (Homo sapiens, UniProt P29033); assay: Cx26-dependent growth complementation assay in E. coli LB2003; format: cell-based
T2 construct: expressed in transfected cells; host or cells: E. coli LB2003 (carrying pREP4), transformed with pQE-Cx26, IPTG-induced
Experimental: These derivatives were prepared by sequential benzylation and methylation followed by reduction of azido groups or hydrogenolysis of the Bn. […] Connexin HC inhibition was conducted using a bacteria-based assay of HC function^39. In this assay, Cx26 HCs are expressed in E. coli LB2003 cells, which lack three major K^+ uptake systems (Kdp, Kup and Trk), and as a result they cannot grow in low-[K^+] media^39-41. However, growth of this E. coli strain in low-[K^+] medium can be rescued by expression of K^+-permeable channels such as connexin HCs^39, 42-43. Under the conditions of the assay (LB2003 cells expressing HCs and grown in low-K^+ medium), inhibition of the HCs reduces or abolishes growth^39, 42-43. This is a simple assay where bacterial growth in multi-well plates can be followed by measuring the absorbance at 600 nm (OD600)^29.
LB2003 cells generously provided by Dr. E. P. Bakker (Osnabruk University, Osnabruk, Germany) were transformed with the plasmid pQE-Cx26 (human Cx26 into pQE60) and pREP4. […] LB2003 cells cannot grow in low-[K^+] media because of insufficient K^+ uptake for growth due to the knockout of three key K^+ transporters (Atrk, Akup, Akdp strain)^2-4. Details and validation of the growth complementation assay have been published recently^2. In brief, competent LB2003 containing the pREP4 plasmid were transformed with pQE-Cx26. These cells were grown overnight in Luria-Bertani medium (BD, Franklin Lakes, NJ, USA) supplemented with 100 mM KCl (to allow growth) and 0.4 mg/mL ampicillin, and then washed four times with NLM (see below), to remove residual K^+ from the Luria-Bertani medium. The washed cells were resuspended in complementation growth medium to an OD600 of 0.2. NLM contained 46 mM Na2HPO4, 23 mM NaH2PO4, 8 mM (NH4)2SO4, 0.4 mM MgSO4, 0.012 mM FeSO4, 1 mM sodium citrate, 44 mM glucose and 0.006 mM thiamine hydrochloride, pH 7.0. KLM had the same composition that NLM except for the equimolar replacement of Na^+ with K^+. For growth complementation we used NLM+4 mM KCl, and Cx26 expression was induced with 0.5 mM IPTG at the time of dilution to OD600=0.2. For the assay, the cells were seeded in 96-well plates and were incubated at 30° C., with shaking at 500 rpm. OD600 was measured after 18-h incubation in a plate reader. The initial OD600=0.2 was subtracted for growth calculations. Data are presented as means±SEM. Statistically significant differences were calculated by the Student t-test for unpaired data. Data were obtained from at least 3 independent experiments, with 3 repeats per experiment.

[1] = 4″,6″-disubstituted AKs, Table 5, read-out: Cx43 IC50
[2] = K46 members, the 20th table, read-out: IC50 (μM) against Cx43
[3] = the 12th table, Hill fit, mean ± SEM, some n = 1, read-out: Cx43 IC50
[4] = 4″,6″-disubstituted AKs, Table 5, read-out: Cx26 IC50
[5] = K46 members, the 20th table, read-out: IC50 (μM) against Cx26
[6] = first Table 2, read-out: IC50, inhibition of Cx26 by synthetic AGs
[7] = K members, the 21st table, read-out: Cx43 % inhibition
[8] = Table 3, read-out: Cx243% inhibition
[9] = Table 6, read-out: Cx43 (% inhibition)

T1 sequence (P17302 whole entry): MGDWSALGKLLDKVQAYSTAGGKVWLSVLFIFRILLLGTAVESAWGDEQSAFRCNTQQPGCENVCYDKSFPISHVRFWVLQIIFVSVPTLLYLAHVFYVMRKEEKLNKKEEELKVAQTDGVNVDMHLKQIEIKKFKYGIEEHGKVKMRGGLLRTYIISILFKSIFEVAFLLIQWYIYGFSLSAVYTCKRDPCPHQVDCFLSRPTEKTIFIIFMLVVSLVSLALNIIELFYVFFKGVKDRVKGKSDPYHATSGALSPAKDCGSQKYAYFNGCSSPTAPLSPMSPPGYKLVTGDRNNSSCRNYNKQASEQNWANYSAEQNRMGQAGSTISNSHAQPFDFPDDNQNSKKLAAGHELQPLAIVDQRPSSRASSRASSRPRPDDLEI

SMILES	IC50 (Cx43 HCs; [1])	Cx43/Cx26 Selectivity (Cx43 HCs; Table 5)	IC50 (Cx43 HCs; [3])	IC50 (human Cx26 HCs; [6])	inhibition at 15 µM (Cx43 HCs; [7])	inhibition at 15 µM (Cx43 HCs; [8])	inhibition at 50 µM (Cx43 HCs; [7])	inhibition at 50 µM (Cx43 HCs; [8])	inhibition at 15 µM (human Cx26 HCs; Table 3)	inhibition at 50 µM (human Cx26 HCs; Table 3)	inhibition at 15 µM (Cx43 HCs; [9])	inhibition at 50 µM (Cx43 HCs; [9])	inhibition at 15 µM (human Cx26 HCs; Table 6)	inhibition at 50 µM (human Cx26 HCs; Table 6)	also measured
NCC1OC(OC2C(N)CC(N)C(OC3OC(COCc4ccc(Cl)cc4)C(OCc4ccc(Cl)cc4)C(N)C3O)C2O)C(O)C(O)C1O (centres unmarked) [Compound 12, 4″,6″-Di-O-(4-chlorobenzyl) kanamycin]	17.1 ± 1.7 µM	0.15	20.3 µM	2.5 ± 0.6 µM	–	–	–	–	–	–	–	–	–	–	IC50 (Cx43 HCs; [2]): 20.3 µM; Cx43 Imax (maximal inhibition) (Cx43 HCs; the 12th table, Hill fit): 133%; IC50 (human Cx26 HCs; [4]): 2.5 ± 0.6 µM; IC50 (human Cx26 HCs; [5]): 2.5 ± 0.6 µM
NC[C@H]1O[C@H](O[C@H]2[C@H](O)[C@@H](O[C@@H]3O[C@H](COCc4ccc(F)cc4)[C@@H](OCc4ccc(F)cc4)[C@H](N)[C@H]3O)[C@H](N)C[C@@H]2N)[C@H](O)[C@@H](O)[C@@H]1O [Compound 13, 4″,6″-Di-O-(4-flurobenzyl) kanamycin]	26.6 ± 7.8 µM	0.30	26.6 ± 7.8 µM	8.1 ± 0.5 µM	–	–	–	–	–	–	–	–	–	–	IC50 (Cx43 HCs; [2]): 26.6 ± 7.8 µM; Cx43 Imax (maximal inhibition) (Cx43 HCs; the 12th table, Hill fit): 110 ± 33%; IC50 (human Cx26 HCs; [4]): 8.1 ± 0.5 µM; IC50 (human Cx26 HCs; [5]): 8.1 ± 0.5 µM
NCC1OC(OC2C(N)CC(N)C(OC3OC(COCc4ccc5ccccc5c4)C(OCc4ccc5ccccc5c4)C(N)C3O)C2O)C(O)C(O)C1O (centres unmarked) [Compound 14, 4″,6″-Di-O-(2-naphthalenmethyl) kanamycin]	6.2 ± 4.4 µM	1.07	–	4.9 ± 0.2 µM	–	–	–	–	–	–	–	–	–	–	–
Cc1ccc(S(=O)(=O)OC[C@H]2OC(OC3C(N)CC(N)C(O[C@H]4OC(CN)[C@@H](O)C(O)C4O)[C@@H]3O)[C@H](O)C(N)C2O)cc1 (some centres unmarked) [Compound K19]	–	–	–	–	38.1 ± 2.8%	38.1 ± 2.8%	51 ± 8.8%	51 ± 8.8%	26.8 ± 1.7%	49.2 ± 5.5%	–	–	–	–	–
NCC1O[C@H](O[C@@H]2C(N)C[C@@H](N)C(O[C@H]3OC(COc4ccc(-c5nc6ccccc6[nH]5)cc4)[C@@H](O)C(N)C3O)C2O)C(O)C(O)[C@@H]1O (some centres unmarked) [Compound K30]	–	–	8.9 µM	–	8.9%	–	89.4%	–	–	–	–	–	–	–	–
NCC1O[C@H](OC2C(N)CC(N)C(OC3O[C@H](COc4ccccc4)C(O)C(N)[C@H]3O)[C@H]2O)C(O)C(O)[C@@H]1O (some centres unmarked) [Compound K34]	–	–	–	–	36 ± 3.9%	36 ± 3.9%	46.7 ± 7.8%	46.7 ± 7.8%	14.6 ± 4.3%	69.4 ± 4.2%	36 ± 3.9%	46.7 ± 7.8%	14.6 ± 4.3%	69.4 ± 4.2%	–
NCC1O[C@H](OC2C(N)CC(N)C(OC3O[C@H](COc4ccc([N+](=O)[O-])cc4)C(O)C(N)[C@H]3O)[C@H]2O)C(O)C(O)[C@@H]1O (some centres unmarked) [Compound K36]	–	–	–	–	36.5 ± 0.6%	36.5 ± 0.6%	49.3 ± 2.2%	49.3 ± 2.2%	35.9 ± 2.9%	62.6 ± 9.2%	36.5 ± 0.6%	49.3 ± 2.2%	35.9 ± 2.9%	62.6 ± 9.2%	–
NCC1O[C@H](OC2C(N)CC(N)C(OC3O[C@H](CNC(=O)c4ccccc4-c4c5ccc(=O)cc-5oc5cc(O)ccc45)C(O)C(N)[C@H]3O)[C@H]2O)C(O)C(O)[C@@H]1O (some centres unmarked) [Compound K40]	–	–	–	–	45.3 ± 2.7%	45.3 ± 2.7%	55.1 ± 5.8%	55.1 ± 5.8%	37.1 ± 13.5%	81 ± 1.7%	–	–	–	–	–
COc1ccc(OC[C@H]2OC(OC3C(N)CC(N)C(O[C@H]4OC(CN)[C@@H](O)C(O)C4O)[C@@H]3O)[C@H](O)C(N)C2O)cc1 (some centres unmarked) [Compound K81]	–	–	–	–	20 ± 7.4%	20 ± 7.4%	34.8 ± 7.8%	34.8 ± 7.8%	15.9 ± 4.2%	36.5 ± 4.7%	20 ± 7.4%	34.8 ± 7.8%	15.9 ± 4.2%	36.5 ± 4.7%	–
NC[C@@H]1O[C@H](O[C@H]2[C@@H](O)[C@H](O[C@@H]3[C@@H](O)[C@H](N)C[C@H](N)[C@H]3O[C@H]3O[C@H](CO)[C@@H](O)[C@H](O)[C@H]3N)O[C@@H]2CO)[C@H](N)[C@@H](O)[C@@H]1O [Paromomycin, reference compound]	–	–	–	–	–	–	–	–	–	–	–	–	–	–	Cx43/Cx26 Selectivity (Cx43 HCs; the 16th table): 0.21

Reference: US12286452B2, “Amphiphilic aminoglycoside connexin hemichannel inhibitors” (Texas Tech University System, priority 2018, dated 2025)
